Source: PMC9369794 (Molecules, 2022)

Experiments:
[1] = TEAC assay using ABTS radical; settings: 6 min, ratio of slopes to trolox (melatonin dissolved in EtOH); for TEAC from DMSO: stock in DMSO diluted with PBS pH 7.4, 37 °C; for TEAC from THF: stock in THF diluted with PBS pH 7.4, 37 °C
Description: This method uses a redox reaction between ABTS^•+ radical cation and the examined antioxidants, which act as the reducing agents. […] As the carotenoids and the conjugates are poorly soluble in water, they were dissolved first either in small amounts of freshly distilled tetrahydrofuran (THF) or in dimethylsulfoxide (DMSO), and these stock solutions were diluted with phosphate-buffered saline (PBS) to the final nominal concentration.
The TEAC values were determined in isotonic phosphate buffer of pH 7.4. The buffer solution was made by dissolving 9.55 g of DPBS powder in distilled water to form 1L of solution (composition: 0.138 M NaCl, 0.0027 M KCl, 0.0081 M Na2HPO4, 0.0015 M KH2PO4). The assay was performed according to a literature process with slight modifications. The ABTS^•+ radical cation was produced by reacting 7 mM 2,2′-azino-bis(3-ethylbenzothiazoline-6-sulfonic acid) and 2.45 mM potassium persulfate in water. The stock ABTS^•+ solution was prepared 12–16 h before the experiments, and stored at room temperature in dark. The absorbance of the ABTS^•+ solution was set to 0.70 ± 0.05 at 734 nm by a ca. 100-fold dilution with phosphate-buffered saline (PBS). […] The stock solutions were diluted with PBS such that equal amounts of the diluted solutions were added to the ABTS^•+ reagent to obtain final antioxidants concentrations of 0.3125, 0.625, 1.25, 2.50, 3.75, 5 μM, respectively. In the blank (0 μM), the solutions of the antioxidants were substituted with THF or DMSO.
The antioxidants were incubated with ABTS^•+ solution at 37 °C for 6 min. During the reaction of ABTS^•+ with the antioxidants the absorbance of the solution decreases. The percentage inhibition of absorbance at 734 nm was calculated as (A0 − Aantioxidant)/A0, where A0 is the absorbance of the ABTS^•+ solution and Aantioxidant is the absorbance measured after the addition of the antioxidant. The determinations were carried out at each concentration in triplicate. The calculated values were plotted against the final concentration of the antioxidants. The slopes of the curves were compared with that for trolox, the TEAC value is the ratio of the slopes for the antioxidant and for trolox.

Water dispersibility = format: physicochemical; settings: distilled water, sonication
Description: About 2 mg of the examined substance was dispersed in 40 mL of distilled water and the suspension was sonicated for 2 min. The addition of water was continued with 10 mL portions, after each portion the mixture was sonicated for 2 min. This process was continued till a homogenous solution was observed by naked eye. Then, the solution was let to stand for an hour to inspect any precipitate formation, but no changes occurred in any of the cases.

[2] = FRAP assay for the antioxidant capacity; parameters: key to FRAP: slope of concentration-absorbance line divided by Trolox slope; settings: stock in THF, acetate buffer pH 3.0, 37 °C, 15 min; ratio of slopes to trolox (melatonin in EtOH)
Description: In the FRAP method the antioxidant reduces Fe^3+ to Fe^2+ in an acidic medium. These experiments were performed in an acetate buffer of pH 3.0, the stock solutions of the examined antioxidants were prepared in THF. The antioxidant capacities were compared to that of Trolox as a standard, just like in the ABTS assays.
A modified literature process was used. The FRAP reagent should also be prepared freshly each day. 2,4,6-Tris(2-pyridyl)-s-triazin (TPTZ) was dissolved in a 200 mM HCl solution and diluted with water to get a final 40 mM HCl and 10 mM TPTZ concentration. For the preparation of the FRAP reagent 30 mL of 20 mM FeCl3 solution and 30 mL of 10 mM TPTZ solution were mixed, and 300 mL of 300 mM acetate buffer with pH 3.0 was added (a pH lower than usual was used to avoid the precipitation of the TPTZ). The FRAP reagent was incubated at 37 °C for 15 min. 150 μL of antioxidant dissolved in THF was mixed with 2.85 mL FRAP reagent solution, and incubated at 37 °C for 15 min in dark. Measurements were carried out at each antioxidant concentration (0, 7.5; 10; 12.5; 15; 17.5 μM final concentration) in triplicate. In the 0 μM solution the antioxidant solution was substituted with acetate buffer (pH 3.0). The FRAP was determined at 600 nm: the absorbance values were plotted as a function of concentration of the sample compounds and that of Trolox for the standard reference data. The FRAP values were calculated as in the ABTS assays, i.e., the slope of the concentration-absorbance lines for the carotenoid derivatives was divided by that for the trolox.

[3] = Study of aggregation by UV-Vis spectrophotometry; format: physicochemical; settings: for change of UV spectrum with increasing ratio of PBS: starting from THF solutions; for type of aggregates formed: from THF:aqueous solutions
Source text: It has been known for a long while that carotenoids or their derivatives can be prone to supramolecular organization in water or water-organic solvent mixtures. This behaviour is especially interesting because this higher organization can modulate or alter biological properties of carotenoids, as well [40]. A tendency to form supramolecular structures can be tested by recording the UV spectra in an organic solvent and increasing the ratio of water in the sample. […] We have some recent experience of such behaviour of carotenoid-flavonoid conjugates.
All of our adducts were tested with the method above using tetrahydrofurane (THF) or dimethylsulfoxide (DMSO) with increasing ratio of phosphate-buffered saline (PBS), which was the medium of the antioxidant measurements. […]
1. Study of Aggregation by UV-Vis Spectrophotometry
Starting from THF solutions: each conjugate was dissolved in freshly distilled THF and the solutions were diluted
either with THF or THF-PBS mixtures to obain final solutions of identical carotenoid concentration. […]
Figure S1. UV-spectra of 8’-apo-β-carotenol succinate ( 6) ( a) in THF and in THF-PBS mixtures ( 1:1 , 1:3); (b) in DMSO
Figure S2. UV-spectra of zeaxanthin bissuccinate ( 7) ( a) in THF and in THF-PBS mixtures ( 1:1 , 1:3); (b) in DMSO and
Figure S3. UV-spectra of zeaxanthin monosuccinate ( 11) ( a) in THF and in THF-PBS mixtures ( 1:1 , 1:3); (b) in DMSO […]

[4] = Hydrodynamic diameter and colloidal stability of aggregates by dynamic light scattering; format: physicochemical; settings: for mean size (hydrodynamic diameter) / zeta potential: 37 °C; for PDI: sd^2/mean size^2
Description: In contrary, all spectra gave a hypsochromic shift and loss of fine-structure when the DMSO solutions were diluted with PBS, which refers to the formation of H-type (card-pack) aggregates (Figures S1–S12). Since DMSO-containing aqueous systems are more suitable for biological studies, we examined these solution by dynamic light scattering (DLS) spectroscopy to gain more information about the particles. The concentrations of the examined solutions were the same as used in the ABTS/TEAC measurements (0.3125–5.00 μM, see next section).
Size determination of aggregates and the colloidal stability of the sample dispersions were determined by dynamic light scattering measurements, where the hydrodynamic diameter of particles, and zeta potential values were collected. The number-weighted size distribution indicated one main peak in each case, the polydispersity index (PDI) was calculated as sd^2/mean size^2. For the particle size analysis Malvern Zetasizer Nano S instrument and for the zeta potential determination Malvern Zetasizer Nano Z instrument were used (Malvern Panalytical Ltd., Great Malvern, Worcestershire, UK). The measurements were carried out in autocorrelation mode, and the following parameters were kept constant: scattering angle 173°, attenuator 11 and its factor 0.0146, measurement position 4.65 mm. The concentrations of sample dispersions were between 0.3125 and 5 µM. The dispersion medium was PBS. Each samples was examined after 6 min incubation period at 37 °C.

[5] = 0.3125 μM in PBS from DMSO stock
[6] = 0.625 μM in PBS from DMSO stock

| SMILES | TEAC from DMSO [1] | TEAC from THF [1] | Water Dispersibility (Water dispersibility) | FRAP [2] | change of UV spectrum with increasing ratio of PBS [3] | mean size (hydrodynamic diameter) [4, 5] | zeta potential [4, 5] | PDI ([4]; 0.3125 μM in PBS) | mean size (hydrodynamic diameter) [4, 6] | zeta potential [4, 6] | PDI ([4]; 0.625 μM in PBS) | mean size (hydrodynamic diameter) ([4]; 1.25 μM in PBS from DMSO stock) | zeta potential ([4]; 1.25 μM in PBS from DMSO stock) | PDI ([4]; 1.25 μM in PBS) | zeta potential ([4]; 2.5 μM in PBS from DMSO stock) | zeta potential ([4]; 3.75 μM in PBS from DMSO stock) | mean size (hydrodynamic diameter) ([4]; 5 μM in PBS from DMSO stock) | zeta potential ([4]; 5 μM in PBS from DMSO stock) | PDI ([4]; 5 μM in PBS) | mean size (hydrodynamic diameter) ([4]; 2.5 μM in PBS from DMSO stock) | other results |
| --- | --- | --- | --- | --- | --- | --- | --- | --- | --- | --- | --- | --- | --- | --- | --- | --- | --- | --- | --- | --- | --- |
| CC1=C(/C=C/C(C)=C/C=C/C(C)=C/C=C/C=C(C)/C=C/C=C(C)/C=C/C(=O)[C@]2(C)C[C@@H](OC(=O)CCC(=O)O)CC2(C)C)C(C)(C)C[C@H](OC(=O)CCC(=O)O)C1 [Compound 9, Capsanthin bissuccinate] | 1.66 | 2.297 | less than 0.6 mg/100 mL | 0.189 | did not cause much change | 241.5 nm | 22.6 mV | 0.0186 | 10.71 nm | 20.1 mV | 0.0159 | 28.78 nm | 31.0 mV | 0.0354 | 51.3 mV | 2.7 mV | 19.31 nm | 0.0 mV | 0.0298 |  |  |
| CC1=C(/C=C/C(C)=C/C=C/C(C)=C/C=C/C=C(C)/C=C/C=C(C)/C=C/C2=C(C)C[C@@H](OC(=O)CCC(=O)O)CC2(C)C)C(C)(C)C[C@H](O)C1 [Compound 11, Zeaxanthin monossuccinate] | 0.81 | 1.056 | less than 0.3 mg/100 mL | 0.145 | bathochromic shift | 30.98 nm | 51.7 mV | 0.0256 | 277.80 nm | 123.0 mV | 0.0264 | 25.09 nm | 80.5 mV | 0.0310 | 80.6 mV | 77.3 mV | 150.00 nm | −23.5 mV | 0.0297 | 32.93 nm | type of aggregates formed [3]: J-type (head-to-tail) aggregates; PDI ([4]; 2.5 μM in PBS): 0.0420; mean size (hydrodynamic diameter) ([4]; 3.75 μM in PBS from DMSO stock): 17.71 nm; PDI ([4]; 3.75 μM in PBS): 0.1357 |
| CC1=C[C@H](OC(=O)CCC(=O)O)CC(C)(C)[C@H]1/C=C/C(C)=C/C=C/C(C)=C/C=C/C=C(C)/C=C/C=C(C)/C=C/C1=C(C)C[C@@H](OC(=O)CCC(=O)O)CC1(C)C [Compound 10, Lutein bissuccinate] | 1.49 | 2.356 | 1.5 mg/100 mL | 0.184 | did not cause much change | 453.5 nm | 103.0 mV | 0.0235 | 215.4 nm | 44.4 mV | 0.0320 | 263.3 nm | 89.6 mV | 0.0608 | 0.0 mV | 0.0 mV | 29.2 nm | 20.3 mV | 0.0249 | 123.1 nm | PDI ([4]; 2.5 μM in PBS): 0.0108; mean size (hydrodynamic diameter) ([4]; 3.75 μM in PBS from DMSO stock): 143.8 nm; PDI ([4]; 3.75 μM in PBS): 0.0121 |
| COc1ccc2[nH]cc(CCNC(=O)CNC(=O)CCC(=O)O[C@@H]3CC(C)=C(/C=C/C(C)=C/C=C/C(C)=C/C=C/C=C(C)/C=C/C=C(C)/C=C/C(=O)[C@]4(C)C[C@@H](OC(=O)CCC(=O)NCC(=O)NCCc5c[nH]c6ccc(OC)cc56)CC4(C)C)C(C)(C)C3)c2c1 [Compound 17, Capsanthin-dimelatonin conjugate] | 2.53 | 1.519 |  | 0.629 | bathochromic shift | 24.42 nm | −31.0 mV | 0.0408 | 43.47 nm | −22.9 mV | 0.1239 | 101.60 nm | −21.1 mV | 0.1362 | −22.2 mV | −27.5 mV | 236.60 nm | −27.0 mV | 0.1273 | 226.30 nm | type of aggregates formed [3]: J-type (head-to-tail) aggregates; PDI ([4]; 2.5 μM in PBS): 0.1650; mean size (hydrodynamic diameter) ([4]; 3.75 μM in PBS from DMSO stock): 58.55 nm; PDI ([4]; 3.75 μM in PBS): 0.1693; melting point: 130 to 131 °C |
